Where a chain is given by its changes, count along the chain named. Names may count otherwise. Ends that are not written are not given here. * marks the point of attachment. FITC = O=C1OC2(c3ccc(O)cc3Oc3cc(O)ccc32)c2ccc(NC(=S)*)cc21
B1: FITC-conjugated CD44 peptide (SRRRCGQKKKLVINSGNGAVEDYK-FITC) (peptide)
peptide: SRRRCGQKKKLVINSGNGAVEDYK(FITC)
B2: C3S1-pd peptide (peptide)
peptide: EDGGSSWEYIWTLPSG
B3: MSN FERM domain (1-345) H288A, untagged (domain or fragment)
chain: MPKTISVRVTTMDAELEFAIQPNTTGKQLFDQVVKTIGLREVWFFGLQYQDTKGFSTWLKLNKKVTAQDVRKESPLLFKFRAKFYPEDVSEELIQDITQRLFFLQVKEGILNDDIYCPPETAVLLASYAVQSKYGDFNKEVHKSGYLAGDKLLPQRVLEQHKLNKDQWEERIQVWHEEHRGMLREDAVLEYLKIAQDLEMYGVNYFSIKNKKGSELWLGVDALGLNIYEQNDRLTPKIGFPWSEIRNISFNDKKFVIKPIDKKAPDFVFYAPRLRINKRILALCMGNAELYMRRRKPDTIEVQQMKAQAREEKHQKQMERAMLENEKKKREMAEKEKEKIEREKE
B4: MSN FERM domain (1-345) L281R, untagged (domain or fragment)
chain: B3 chain with L281R, A288H

Key:
MSN–CD44 interaction = MSN–CD44 interaction (Homo sapiens, UniProt P26038); test: MSN–CD44 TR-FRET assay; assay type: binding; details: for increase in potency relative to compound 2: MSN–CD44 TR-FRET
Sequence of MSN–CD44 interaction (P26038 1-345): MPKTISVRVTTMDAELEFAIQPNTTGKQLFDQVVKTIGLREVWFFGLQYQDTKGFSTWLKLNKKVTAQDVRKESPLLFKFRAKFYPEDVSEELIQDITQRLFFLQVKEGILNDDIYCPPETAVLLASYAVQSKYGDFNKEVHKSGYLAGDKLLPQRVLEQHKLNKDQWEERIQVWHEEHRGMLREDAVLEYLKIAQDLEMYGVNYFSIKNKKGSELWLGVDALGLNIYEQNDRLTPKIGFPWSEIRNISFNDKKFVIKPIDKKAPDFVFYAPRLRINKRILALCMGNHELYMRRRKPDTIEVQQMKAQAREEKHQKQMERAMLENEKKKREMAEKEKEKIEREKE

[1] = target: GST-MSN and Venus-Flag-CD44 (Homo sapiens, UniProt P26038); test: GST pull-down assay in cell lysates; assay type: binding; details: full-length GST-MSN and Flag-CD44
Sequence of GST-MSN and Venus-Flag-CD44 (P26038 whole entry): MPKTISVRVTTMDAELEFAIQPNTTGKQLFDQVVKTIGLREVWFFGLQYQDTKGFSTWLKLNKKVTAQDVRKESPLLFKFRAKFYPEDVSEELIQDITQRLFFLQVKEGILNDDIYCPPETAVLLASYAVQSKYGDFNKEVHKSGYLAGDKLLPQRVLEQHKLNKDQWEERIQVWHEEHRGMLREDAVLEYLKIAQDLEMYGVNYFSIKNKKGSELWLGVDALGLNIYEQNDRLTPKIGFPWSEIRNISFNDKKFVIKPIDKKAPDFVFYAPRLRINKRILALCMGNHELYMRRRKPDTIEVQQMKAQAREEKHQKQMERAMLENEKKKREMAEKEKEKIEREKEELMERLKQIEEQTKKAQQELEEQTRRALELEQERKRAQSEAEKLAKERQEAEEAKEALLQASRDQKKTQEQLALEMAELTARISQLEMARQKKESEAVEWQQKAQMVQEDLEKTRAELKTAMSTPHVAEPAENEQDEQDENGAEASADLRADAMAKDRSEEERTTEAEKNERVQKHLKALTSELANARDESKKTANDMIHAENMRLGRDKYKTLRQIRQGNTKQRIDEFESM

[2] = Solubility by nephelometry; details: aqueous / PBS buffer
[3] = target: T1, 6His-tagged MSN FERM domain (residues 1-345), wild type (human, UniProt P26038 1-345); test: FRET or BRET
[4] = target: MSN FERM domain (residues 1-345), wild type, 6His tag cleaved (human, UniProt P26038 1-345); test: FRET or BRET
[5] = target: T1, 6His-tagged MSN FERM domain (residues …); test: FRET or BRET; remark: listed apart in the source
[6] = target: T1, 6His-tagged MSN FERM domain (residues …); test: FRET or BRET; remark: listed apart in the source
[7] = target: B1; test: FRET or BRET

Molecule | h (hill slope) of MSN–CD44 TR-FRET dose response (MSN–CD44 interaction) | effect on MSN–CD44 interaction in GST pull-down assay [1] | solubility [2] | also measured
Nc1ccc(C(=O)Nc2ccc(-c3nc4ccc(NC(=O)c5ccc(N)cc5)cc4s3)cc2)cc1.O=C(O)C(F)(F)F.O=C(O)C(F)(F)F [Compound 1, 4-amino-N-(4-(6-(4-aminobenzamido)benzo[d]thiazol-2-yl)phenyl)benzamide bis(2,2,2-trifluoroacetate)] | 1.7 | induce the dissociation of CD44 from MSN |  | 
COc1ccccc1C(=O)Nc1ccc(-c2nc3ccccc3[nH]2)cc1 [Compound 2, N-(4-(1H-benzo[d]imidazol-2-yl)phenyl)-2-methoxybenzamide] | 15.8 | induce the dissociation of CD44 from MSN | low solubility | 
COc1ccc(C(=O)Nc2ccc(-c3nc4ccccc4[nH]3)cc2)c(OC)c1 [Compound 2a, N-(4-(1H-benzo[d]imidazol-2-yl)phenyl)-2,4-dimethoxybenzamide] | 2.4 | able to inhibit the MSN–CD44 interaction | improved solubility | increase in potency relative to compound 2 (MSN–CD44 interaction): approximately 2 fold
O=C(Nc1ccc(-c2nc3ccccc3[nH]2)cc1)c1cccc(Cl)c1 [Compound 2b, N-(4-(1H-benzo[d]imidazol-2-yl)phenyl)-3-chlorobenzamide] | 2.3 | able to inhibit the MSN–CD44 interaction | improved solubility | increase in potency relative to compound 2 (MSN–CD44 interaction): approximately 2 fold
B1 |  |  |  | binding result [3]: binds; binding result [4]: binds
B2 |  |  |  | EC50 [5]: ~130 nM; IC50 [6]: ~220 nM
B3 |  |  |  | fold higher concentration needed to inhibit, against WT MSN [7]: 10 fold
B4 |  |  |  | fold higher concentration needed to inhibit, against WT MSN [7]: 10 fold
